Measured values from patent US20240417405A1, “Substituted Spiro Derivatives” (Janssen Pharmaceutica NV, priority 2021, published 2024).
Where two headings read alike, the source gives them in different places.

Columns and labels:
[1] = molecular target: T1, menin/MLL (terbium chelate-labeled menin, FITC-MBM1 peptide) (Homo sapiens, UniProt O00255, T541A); assay: Menin/MLL homogenous time-resolved fluorescence (HTRF) assay; format: binding; details: 30 min incubation
T1 construct: Menin (a.a 1-610-6xhis tag)
T1 sequence (O00255 with tags, fused parts or gaps T541A): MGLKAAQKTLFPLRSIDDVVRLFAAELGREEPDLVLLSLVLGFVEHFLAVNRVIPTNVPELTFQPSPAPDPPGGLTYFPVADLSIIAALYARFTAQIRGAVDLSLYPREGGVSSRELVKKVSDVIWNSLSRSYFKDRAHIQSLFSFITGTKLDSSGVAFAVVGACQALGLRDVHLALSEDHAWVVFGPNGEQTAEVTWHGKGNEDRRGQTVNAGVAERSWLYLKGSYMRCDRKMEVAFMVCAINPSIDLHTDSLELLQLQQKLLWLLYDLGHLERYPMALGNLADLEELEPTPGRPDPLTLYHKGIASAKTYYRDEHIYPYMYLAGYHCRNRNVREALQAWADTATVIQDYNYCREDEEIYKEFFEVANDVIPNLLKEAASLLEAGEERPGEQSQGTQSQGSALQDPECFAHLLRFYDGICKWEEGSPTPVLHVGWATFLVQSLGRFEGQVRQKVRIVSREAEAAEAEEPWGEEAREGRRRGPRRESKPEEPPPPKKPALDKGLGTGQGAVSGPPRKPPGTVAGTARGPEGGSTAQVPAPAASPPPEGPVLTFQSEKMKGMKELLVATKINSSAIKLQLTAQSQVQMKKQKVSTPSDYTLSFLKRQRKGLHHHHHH
Method in brief: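 Read-out: TR-FRET ratio (FITC 520 nm / terbium 490 nm, ex. 337 nm) after 15 min with 75 nM FITC-MBM1 peptide. Test compound first sat 30 min with 200 pM Tb-menin 1-610-His, 0.5% DMSO, pH 7.5 Tris buffer. IC50 by Hill fit; values under 0.1 nM reported as 0.1 nM.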

[2] = system: KO-52 cells; assay: Proliferation assay, spheroid-like growth, KO-52 (MLL wildtype control cell line); format: cell-based, human; details: KO-52 control cells, 8 days, confluence as measure of spheroid size, read-out: spheroid assay_OneTime KO-52 IC50
Method in brief: (§1)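 MOLM14 (MLL-AF9) or KO-52 (MLL wildtype) cells were grown in ultra-low attachment round-bottom wells with compound (0.3% DMSO) for 8 days at 37 °C. Spheroid confluence was imaged live on day 8, normalized to DMSO and a high-dose reference/staurosporin control, and absolute IC50 fitted with variable slope.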

[3] = system: MOLM14 cells; assay: Proliferation assay, spheroid-like growth, MOLM14 (MLL-AF9 rearranged); format: cell-based, human; details: 8 days, confluence as measure of spheroid size, read-out: spheroid assay_OneTime MOLM14 IC50
Method in brief: as §1

| IC50 [1] [nM] | IC50 ([3]; Homo sapiens, MOLM-14, 192 h) [nM] | IC50 [3] [nM] | Compound | IC50 ([2]; Homo sapiens, 192 h) [nM] | IC50 [2] [nM] |
| --- | --- | --- | --- | --- | --- |
| 0.08 | 2.9 | – | CC(C)C([C@H]1C[C@@H](Nc2ccnc(N)n2)C1)N1CC2(CCN(c3ncnnc3Oc3ccc(F)cc3-c3cncnc3C3CC3)C2)C1 (stereo partly drawn) [Compound 434] | 2000 | – |
| 0.3 | 35 | – | COc1ncc(-c2cc(F)ccc2Oc2nncnc2N2CCC3(C2)CN(C(C(C)C)[C@H]2C[C@@H](NC(C)=O)C2)C3)c(C2CC2)n1 (stereo partly drawn) [Compound 500] | 10200 | – |
| 29.8 | – | 40 | C[C@H]([C@H]1C[C@@H](NC(=O)OC(C)(C)C)C1)N1CC2(CCN(c3ncnnc3Oc3ccc(F)cc3-c3cncnc3C3CC3)C2)C1 [Compound 512a] | – | 310 |
| 0.589 | – | > 940 | C[C@@H]([C@H]1C[C@@H](NC(=O)OC(C)(C)C)C1)N1CC2(CCN(c3ncnnc3Oc3ccc(F)cc3-c3cncnc3C3CC3)C2)C1 [Compound 512b] | – | 5810 |
